# Measurements as given in ChEMBL document CHEMBL5042556, “Lead Optimization to Advance Protease-Activated Receptor-1 Antagonists in Early Discovery” (J Med Chem, 2022).
# Tests used:
# [1] = MRT in cynomolgus monkey at 0.3 mg/kg, po; assay type: ADME, organism-based, Macaca fascicularis; conditions: in vivo
# [2] = target: Voltage-gated inwardly rectifying potassium channel KCNH2 (Homo sapiens, UniProt Q12809); experiment: Inhibition of [35S]MK-499 binding to hERG expressed in HEK293 cells; assay type: toxicity, cell-based
# [3] = MRT in rat at 1 mg/kg, iv; assay type: ADME, organism-based; conditions: in vivo
# [4] = target: T1, Proteinase-activated receptor 1 (Homo sapiens, UniProt P25116); experiment: Antagonist activity at human PAR-1 expressed in HEK293 cells assessed as reduction in TRAP induced calcium signal at 3 uM by FLIPR analysis; assay type: functional, cell-based
# T1 sequence (P25116 whole entry): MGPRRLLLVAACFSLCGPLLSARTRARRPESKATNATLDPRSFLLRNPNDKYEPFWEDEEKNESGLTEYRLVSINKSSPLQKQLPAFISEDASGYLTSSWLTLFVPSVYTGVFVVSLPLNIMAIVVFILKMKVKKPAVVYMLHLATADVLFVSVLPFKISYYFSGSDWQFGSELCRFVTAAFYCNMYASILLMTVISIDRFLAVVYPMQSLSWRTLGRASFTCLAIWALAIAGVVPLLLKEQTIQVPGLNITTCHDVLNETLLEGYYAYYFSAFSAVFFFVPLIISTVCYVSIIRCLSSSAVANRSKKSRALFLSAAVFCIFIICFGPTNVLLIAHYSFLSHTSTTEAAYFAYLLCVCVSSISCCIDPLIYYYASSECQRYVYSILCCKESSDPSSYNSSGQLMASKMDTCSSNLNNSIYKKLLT
# Voltage-gated inwardly rectifying potassium channel KCNH2, sequence (Q12809 whole entry): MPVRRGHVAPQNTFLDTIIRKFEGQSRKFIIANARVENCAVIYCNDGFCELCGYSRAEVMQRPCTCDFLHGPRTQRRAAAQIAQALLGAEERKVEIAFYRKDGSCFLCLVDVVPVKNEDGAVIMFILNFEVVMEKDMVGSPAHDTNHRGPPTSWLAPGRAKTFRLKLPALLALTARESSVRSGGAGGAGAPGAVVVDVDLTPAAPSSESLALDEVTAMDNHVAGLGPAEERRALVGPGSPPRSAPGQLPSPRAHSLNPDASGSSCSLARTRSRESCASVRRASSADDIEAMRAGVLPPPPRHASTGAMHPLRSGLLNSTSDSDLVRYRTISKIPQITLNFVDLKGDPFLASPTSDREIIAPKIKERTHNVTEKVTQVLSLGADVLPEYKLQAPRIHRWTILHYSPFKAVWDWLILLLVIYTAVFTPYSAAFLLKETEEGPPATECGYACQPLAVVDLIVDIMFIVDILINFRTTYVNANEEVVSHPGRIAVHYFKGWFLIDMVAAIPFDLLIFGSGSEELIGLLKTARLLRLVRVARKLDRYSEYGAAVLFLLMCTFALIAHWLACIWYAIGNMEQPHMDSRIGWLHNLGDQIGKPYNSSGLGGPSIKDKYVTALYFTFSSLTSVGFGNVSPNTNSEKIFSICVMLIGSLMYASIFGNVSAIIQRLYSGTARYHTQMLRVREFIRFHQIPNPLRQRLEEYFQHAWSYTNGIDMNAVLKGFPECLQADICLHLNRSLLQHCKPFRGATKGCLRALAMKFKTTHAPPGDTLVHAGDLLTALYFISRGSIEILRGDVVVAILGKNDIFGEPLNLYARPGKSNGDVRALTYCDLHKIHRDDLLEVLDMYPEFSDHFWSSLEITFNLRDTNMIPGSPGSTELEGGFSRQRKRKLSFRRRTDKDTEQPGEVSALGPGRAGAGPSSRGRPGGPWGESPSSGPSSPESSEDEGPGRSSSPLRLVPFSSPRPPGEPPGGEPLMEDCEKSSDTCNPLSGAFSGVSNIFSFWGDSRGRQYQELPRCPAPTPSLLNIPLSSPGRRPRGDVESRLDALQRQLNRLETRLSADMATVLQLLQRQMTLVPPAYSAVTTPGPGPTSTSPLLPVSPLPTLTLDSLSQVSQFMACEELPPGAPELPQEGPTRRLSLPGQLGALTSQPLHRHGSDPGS
SMILES,MRT [1] [h],IC50 [2] [µM],MRT [3] [h],IC50 [4] [µM]
CC[C@H]1[C@H](/C=C/c2ccc(-c3ccccc3C#N)cn2)[C@@H]2[C@@H](C)OC(=O)[C@]2(O)CC1(F)F,> 20,17,5.5,0.008
C[C@H]1OC(=O)[C@@H]2CC3(NC(=O)NC3=O)[C@@H](C)[C@H](c3ccc(-c4cccc(F)c4)cn3)[C@H]12 (stereo not given in full),–,–,–,0.178
